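Abbreviation: GI50, concentration required for 50% inhibition of growth. TGI is the concentration that stops growth completely.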
Assays:
Assay in all cases: growth of human tumour cells (NCI), 384-well format
[1] = tested on: 786-0 renal
[2] = tested on: A498 renal
[3] = tested on: A549 NSCLC
[4] = tested on: ACHN renal
[5] = tested on: BT-549 breast
[6] = tested on: CAKI-1 renal
[7] = tested on: CCRF-CEM leukemia
[8] = tested on: COLO 205 colon
[9] = tested on: DU-145 prostate
[10] = tested on: HCC-2998 colon
[11] = tested on: HCT-116 colon
[12] = tested on: HCT-15 colon
[13] = tested on: HL-60(TB) leukemia
[14] = tested on: HOP-62 NSCLC
[15] = tested on: HOP-92 NSCLC
[16] = tested on: HT29 colon
[17] = tested on: IGROV1 ovarian
[18] = tested on: K-562 leukemia
[19] = tested on: KM12 colon
[20] = tested on: LOX IMVI melanoma
[21] = tested on: M14 melanoma
[22] = tested on: MALME-3M melanoma
[23] = tested on: MCF7 breast
[24] = tested on: MDA-MB-231 breast
[25] = tested on: MDA-MB-435 melanoma
[26] = tested on: MDA-MB-468 breast
[27] = tested on: MOLT-4 leukemia
[28] = tested on: NCI-H226 lung
[29] = tested on: NCI-H23 lung

Work on C[C@H](CCOc1cccc(CC(=O)O)c1)N(Cc1cccc(C(F)(F)F)c1Cl)CC(c1ccccc1)c1ccccc1 yielded a GI50 [1] of 4.3 µM, a TGI [1] of 15.4 µM and a GI50 [2] of 4.51 µM. The TGI [2] was 15.6 µM, the GI50 [3] was 3.46 µM and the TGI [3] was 12 µM. It also gave a GI50 [4] of 5 µM, a TGI [4] of 16.1 µM and a GI50 [5] of 3.27 µM. It also gave a TGI [5] of 12.7 µM, a GI50 [6] of 6.37 µM and a TGI [6] of 18.5 µM. For the same compound, the GI50 [7] was 1.72 µM, the TGI [7] was 4.13 µM and the GI50 [8] was 8.19 µM. For the same compound, the TGI [8] was 20.5 µM, the GI50 [9] was 5.06 µM and the TGI [9] was 16.5 µM. For the same compound, the GI50 [10] was 2.58 µM, the TGI [10] was 7.25 µM and the GI50 [11] was 3 µM. It also gave a TGI [11] of 11.2 µM, a GI50 [12] of 3.83 µM and a TGI [12] of 13 µM. For the same compound, the GI50 [13] was 2.26 µM, the TGI [13] was 4.22 µM and the GI50 [14] was 3.86 µM. It also gave a TGI [14] of 12.9 µM, a GI50 [15] of 2.97 µM and a TGI [15] of 8.88 µM. The GI50 [16] was 4.23 µM, the TGI [16] was 16.2 µM and the GI50 [17] was 5.92 µM. The TGI [17] was 18.5 µM, the GI50 [18] was 3.55 µM and the TGI [18] was 13.4 µM. For the same compound, the GI50 [19] was 3.76 µM, the TGI [19] was 12.5 µM and the GI50 [20] was 4.34 µM. It also gave a TGI [20] of 17.5 µM, a GI50 [21] of 5.84 µM and a TGI [21] of 18.2 µM. For the same compound, the GI50 [22] was 15 µM, the TGI [22] was 28.3 µM and the GI50 [23] was 3.9 µM. For the same compound, the TGI [23] was 14 µM, the GI50 [24] was 10.2 µM and the TGI [24] was 21.9 µM. For the same compound, the GI50 [25] was 10.9 µM, the TGI [25] was 23 µM and the GI50 [26] was 3.06 µM. For the same compound, the TGI [26] was 7.76 µM, the GI50 [27] was 1.61 µM and the TGI [27] was 3.15 µM. For the same compound, the GI50 [28] was 4.17 µM, the TGI [28] was 15.7 µM and the GI50 [29] was 2.28 µM.

From PubChem BioAssay (NCI)
